Source: patent US11753446B2, “Beta-hairpin peptidomimetics” (POLYPHOR AG, priority 2014, dated 2023)
Like-named read-outs stand apart in the source and are kept apart here. Where a SMILES comes first, the peptide text is derived from it. Bridges are numbered along the chain shown (N, C = ends). [ ]: non-standard residue; d: D form. Ala(cPent) = N[C@@H](CC1CCCC1)C(=O)O; Tle = CC(C)(C)[C@H](N)C(=O)O; dDab = NCC[C@@H](N)C(=O)O; Orn = NCCC[C@H](N)C(=O)O; Dab = NCC[C@H](N)C(=O)O

How the values were obtained:
[1] = system: human red blood cells (hRBC); experiment: Hemolysis: hemolytic activity at 100 μg/mL, 1 h at 37° C.
Outline: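 Peptides at 100 μg/mL incubated with washed 20% (v/v) human erythrocytes (~0.9×10^9 cells/mL) for 1 h at 37 °C with shaking. Released hemoglobin read at OD 540 nm in supernatant; 0% and 100% lysis from PBS/0.001% acetic acid and 2.5% Triton X-100.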

[2] = system: Escherichia coli ATCC 25922; format: cell-based
Outline: (§1)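 Peptide activity was tested by NCCLS broth microdilution with slight modifications. Bacteria were diluted in cation-adjusted Mueller-Hinton II broth to approximately 10^6 CFU/mL against a 0.5 McFarland standard. They were then exposed to two-fold serial peptide dilutions in broth containing 0.002% final polysorbate 80.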

[3] = system: Acinetobacter baumannii DSM 30008; format: cell-based
Outline: as §1

[4] = system: Klebsiella pneumoniae ATCC 13883; format: cell-based
Outline: as §1

[5] = 100 μg/mL, 20% hRBC, 1 h at 37° C.
[6] = Mueller-Hinton II broth, 18-20 hours at 35° C.

`CC(C)[C@@H]1NC(=O)[C@@H]2CSSC[C@H](NC(=O)[C@H](CC3CCCC3)NC(=O)[C@H](CCCNC(=N)N)NC(=O)[C@@H](CCN)NC1=O)C(=O)N[C@@H](Cc1ccc(O)cc1)C(=O)N[C@@H](CC(N)=O)C(=O)N[C@@H](CCCN)C(=O)N[C@H](CCN)C(=O)N[C@@H](CCN)C(=O)N[C@@H](Cc1c[nH]c3ccccc13)C(=O)N[C@@H](CO)C(=O)N[C@@H](Cc1ccc(O)cc1)C(=O)N2` [Example 58, cyclo(-Cpa-Cys-Tyr-Asn-Orn-^DDab-Dab-Trp-Ser-Tyr-Cys-Val-^DDab-Arg-)] (cyclo([Ala(cPent)]CYN[Orn][dDab][Dab]WSYCV[dDab]R); disulfide 2-11) was tested, and the “Hemolysis at 100 μg/mL” value ([1]; red cells of human, 1 h, 100) was 3%, the “Escherichia coli ATCC 25922 MIC” value ([2]; ATCC 25922) was 0.5 µg/mL and the “Acinetobacter baumannii DSM 30008 MIC” value ([3]; DSM 30008) was 0.625 µg/mL. The “Klebsiella pneumoniae ATCC 13883 MIC” value ([4]; ATCC 13883) was 0.75 µg/mL.
`CC[C@H](C)[C@@H]1NC(=O)[C@H](CCCNC(=N)N)NC(=O)[C@@H](CCN)NC(=O)[C@H](Cc2ccc(O)cc2)NC(=O)[C@@H]2CSSC[C@H](NC1=O)C(=O)N[C@@H](Cc1ccc(O)cc1)C(=O)N[C@@H](CC(N)=O)C(=O)N[C@@H](CCCN)C(=O)N[C@H](CCN)C(=O)N[C@@H](CCN)C(=O)N[C@@H](CC(C)C)C(=O)N[C@@H](CO)C(=O)N[C@@H](C(C)C)C(=O)N2` [Example 5, cyclo(-Ile-Cys-Tyr-Asn-Orn-^DDab-Dab-Leu-Ser-Val-Cys-Tyr-^DDab-Arg-)] (HELM PEPTIDE1{C.Y.N.[Orn].[NCC[C@@H](N[*:1])C(=O)[*:2]].[Dab].L.S.V.C.Y.[NCC[C@@H](N[*:1])C(=O)[*:2]].R.I}$PEPTIDE1,PEPTIDE1,1:R3-10:R3|PEPTIDE1,PEPTIDE1,1:R1-14:R2$$$V2.0) was tested, and the “Hemolysis at 100 μg/mL” value ([1]; red cells of human, 1 h, 100) was 4%, the “Escherichia coli ATCC 25922 MIC” value ([2]; ATCC 25922) was 0.5 µg/mL and the “Acinetobacter baumannii DSM 30008 MIC” value ([3]; DSM 30008) was 0.25 µg/mL. The “Klebsiella pneumoniae ATCC 13883 MIC” value ([4]; ATCC 13883) was 0.25 µg/mL.
In the case of `CC[C@H](C)[C@@H]1NC(=O)[C@H](Cc2ccc(O)cc2)NC(=O)[C@H]2CCCN2C(=O)[C@H](CO)NC(=O)[C@H](C)NC(=O)[C@H](C(C)(C)C)NC(=O)[C@H](CCN)NC(=O)[C@H](Cc2c[nH]c3ccccc23)NC(=O)[C@H](CCN)NC(=O)[C@@H](CCN)NC(=O)[C@H](CCCN)NC(=O)[C@H](CCN)NC(=O)[C@H](Cc2ccc(O)cc2)NC(=O)[C@H]([C@@H](C)O)NC1=O` [Example 47, cyclo(-Ile-Thr-Tyr-Dab-Orn-^DDab-Dab-Trp-Dab-tBuGly-Ala-Ser-^DPro-Tyr-)] (HELM PEPTIDE1{A.S.[dP].Y.I.T.Y.[Dab].[Orn].[NCC[C@@H](N[*:1])C(=O)[*:2]].[Dab].W.[Dab].[CC(C)(C)[C@H](N[*:1])C(=O)[*:2]]}$PEPTIDE1,PEPTIDE1,1:R1-14:R2$$$V2.0), the “Hemolysis at 100 μg/mL” value ([1]; red cells of human, 1 h, 100) is reported as 0%, the “Escherichia coli ATCC 25922 MIC” value ([2]; ATCC 25922) is reported as 1 µg/mL and the “Acinetobacter baumannii DSM 30008 MIC” value ([3]; DSM 30008) is reported as 4 µg/mL. For the same compound, the “Klebsiella pneumoniae ATCC 13883 MIC” value ([4]; ATCC 13883) was 1 µg/mL.
With `CC(C)C[C@@H]1NC(=O)[C@H](CCCNC(=N)N)NC(=O)[C@H]2CCCN2C(=O)[C@H](C(C)C)NC(=O)[C@@H]2CSSC[C@H](NC1=O)C(=O)N[C@@H](Cc1ccc(O)cc1)C(=O)N[C@H]1CSSC[C@H](NC(=O)[C@H](Cc3c[nH]c4ccccc34)NC(=O)[C@H](CCN)NC(=O)[C@@H](CCN)NC(=O)[C@H](CCN)NC1=O)C(=O)N[C@@H](Cc1ccc(O)cc1)C(=O)N2` [Example 43, cyclo(-Leu-Cys-Tyr-Cys-Dab-^DDab-Dab-Trp-Cys-Tyr-Cys-Val-^DPro-Arg-)] (HELM PEPTIDE1{C.[Dab].[NCC[C@@H](N[*:1])C(=O)[*:2]].[Dab].W.C.Y.C.V.[dP].R.L.C.Y}$PEPTIDE1,PEPTIDE1,1:R3-6:R3|PEPTIDE1,PEPTIDE1,8:R3-13:R3|PEPTIDE1,PEPTIDE1,1:R1-14:R2$$$V2.0) the “Hemolysis at 100 μg/mL” value ([1]; red cells of human, 1 h, 100 μg/mL) was 2%, the “Escherichia coli ATCC 25922 MIC” value ([2]; ATCC 25922) was 4 µg/mL and the “Acinetobacter baumannii DSM 30008 MIC” value ([3]; DSM 30008) was 1 µg/mL. The “Klebsiella pneumoniae ATCC 13883 MIC” value ([4]; ATCC 13883) was 2 µg/mL.
`CC(C)C[C@@H]1NC(=O)[C@H](CCCCN)NC(=O)[C@@H](CCN)NC(=O)[C@H](C(C)C)NC(=O)[C@@H]2CSSC[C@H](NC1=O)C(=O)N[C@@H](Cc1ccc(O)cc1)C(=O)N[C@@H](CC(N)=O)C(=O)N[C@@H](CCCN)C(=O)N[C@H](CCN)C(=O)N[C@@H](CCN)C(=O)N[C@@H](Cc1c[nH]c3ccccc13)C(=O)N[C@@H](CO)C(=O)N[C@@H](Cc1ccc(O)cc1)C(=O)N2` [Example 67, cyclo(-Leu-Cys-Tyr-Asn-Orn-^DDab-Dab-Trp-Ser-Tyr-Cys-Val-^DDab-Lys-)] (HELM PEPTIDE1{C.V.[NCC[C@@H](N[*:1])C(=O)[*:2]].K.L.C.Y.N.[Orn].[NCC[C@@H](N[*:1])C(=O)[*:2]].[Dab].W.S.Y}$PEPTIDE1,PEPTIDE1,1:R3-6:R3|PEPTIDE1,PEPTIDE1,1:R1-14:R2$$$V2.0) was tested, and the “Hemolysis at 100 μg/mL” value [1, 5] was 1%, the “Escherichia coli ATCC 25922 MIC” value [2, 6] was 1 µg/mL and the “Acinetobacter baumannii DSM 30008 MIC” value [3, 6] was 1.5 µg/mL. The “Klebsiella pneumoniae ATCC 13883 MIC” value [4, 6] was 1 µg/mL.
`CC(C)C[C@@H]1NC(=O)[C@H](CCN)NC(=O)[C@@H](CCN)NC(=O)[C@H]([C@@H](C)O)NC(=O)[C@@H]2CCNC(=O)C[C@H](NC1=O)C(=O)N[C@@H](Cc1ccc(O)cc1)C(=O)N[C@@H](CC(N)=O)C(=O)N[C@@H](CCCN)C(=O)N[C@H](CCN)C(=O)N[C@@H](CCN)C(=O)N[C@@H](Cc1c[nH]c3ccccc13)C(=O)N[C@@H](CO)C(=O)N[C@@H](C(C)(C)C)C(=O)N2` [Example 76, cyclo(-Leu-Asp-Tyr-Asn-Orn-^DDab-Dab-Trp-Ser-tBuGly-Dab-Thr-^DDab-Dab-)] (cyclo(LDYN[Orn][dDab][Dab]WS[Tle][Dab]T[dDab][Dab]); lactam 2-11) was tested, and the “Hemolysis at 100 μg/mL” value ([1]; red cells of human, 1 h, 100) was 2%, the “Escherichia coli ATCC 25922 MIC” value ([2]; ATCC 25922) was 1 µg/mL and the “Acinetobacter baumannii DSM 30008 MIC” value ([3]; DSM 30008) was 1.5 µg/mL. For the same compound, the “Klebsiella pneumoniae ATCC 13883 MIC” value ([4]; ATCC 13883) was 1 µg/mL.
`CC(C)C[C@@H]1NC(=O)[C@H](CCN)NC(=O)[C@@H](CCN)NC(=O)[C@H]([C@@H](C)O)NC(=O)[C@@H]2CSSC[C@H](NC1=O)C(=O)N[C@@H](Cc1ccc(O)cc1)C(=O)N[C@@H](CC(N)=O)C(=O)N[C@@H](CCCN)C(=O)N[C@H](CCN)C(=O)N[C@@H](CCN)C(=O)N[C@@H](Cc1c[nH]c3ccccc13)C(=O)N[C@@H](CO)C(=O)N[C@@H](C(C)(C)C)C(=O)N2` [Example 6, cyclo(-Leu-Cys-Tyr-Asn-Orn-^DDab-Dab-Trp-Ser-tBuGly-Cys-Thr-^DDab-Dab-)] (cyclo(CT[dDab][Dab]LCYN[Orn][dDab][Dab]WS[Tle]); disulfide 1-6) was tested, and the “Hemolysis at 100 μg/mL” value [1, 5] was 5%, the “Escherichia coli ATCC 25922 MIC” value [2, 6] was 0.5 µg/mL and the “Acinetobacter baumannii DSM 30008 MIC” value [3, 6] was 0.5 µg/mL. The “Klebsiella pneumoniae ATCC 13883 MIC” value [4, 6] was 0.5 µg/mL.
With `CC(C)C[C@@H]1NC(=O)[C@H](CCN)NC(=O)[C@@H](CCN)NC(=O)[C@H](C(C)C)NC(=O)[C@@H]2CSSC[C@H](NC1=O)C(=O)N[C@@H](Cc1ccc(O)cc1)C(=O)N[C@@H](CC(N)=O)C(=O)N[C@@H](CCCN)C(=O)N[C@H](CCN)C(=O)N[C@@H](CCN)C(=O)N[C@@H](Cc1c[nH]c3ccccc13)C(=O)N[C@@H](CC(N)=O)C(=O)N[C@@H](Cc1ccc(O)cc1)C(=O)N2` [Example 54, cyclo(-Leu-Cys-Tyr-Asn-Orn-^DDab-Dab-Trp-Asn-Tyr-Cys-Val-^DDab-Dab-)] (HELM PEPTIDE1{C.V.[NCC[C@@H](N[*:1])C(=O)[*:2]].[Dab].L.C.Y.N.[Orn].[NCC[C@@H](N[*:1])C(=O)[*:2]].[Dab].W.N.Y}$PEPTIDE1,PEPTIDE1,1:R3-6:R3|PEPTIDE1,PEPTIDE1,1:R1-14:R2$$$V2.0) the “Hemolysis at 100 μg/mL” value ([1]; red cells of human, 1 h, 100) was 3%, the “Escherichia coli ATCC 25922 MIC” value ([2]; ATCC 25922) was 0.75 µg/mL and the “Acinetobacter baumannii DSM 30008 MIC” value ([3]; DSM 30008) was 1.25 µg/mL. For the same compound, the “Klebsiella pneumoniae ATCC 13883 MIC” value ([4]; ATCC 13883) was 1 µg/mL.
